These results are taken from patent publication EP0908457B1, “3-(1,2-benzisothiazol- and isoxazol-5-Y1)-2,4(1H,3H)-pyrimidinedione or thione and 3-(1,2-benzisothiazol- and isoxazol-5-y1)-4(3H)-pyrimidinone or thione herbicidal agents” (BASF AKTIENGESELLSCHAFT, priority 1997, dated 1999).

The test system of one data set is Sagittaria pygmaea, L. The data set can be described thus: Preemergence weed control under flooded paddy conditions, SAGPY (Arrowhead (Pygmaea)). For herbicidal effect rating, SAGPY: meaning of each grade not given here. It is filed as in vivo. The conditions noted are these: flooded paddy; for herbicidal effect rating, SAGPY / SAGPY herbicidal rating: preemergence; for SAGPY: preemergence weeds, herbicidal effect rating 0-9, three to four weeks after treatment.

The next data set relates to Cyperus iria. Description: Preemergence weed control under flooded paddy conditions, CYPIR (Rice Flatsedge). For herbicidal effect rating, CYPIR: meaning of each grade not given here. It is filed as in vivo. The conditions noted are these: flooded paddy; for herbicidal effect rating, CYPIR / CYPIR herbicidal rating: preemergence; for CYPIR: preemergence weeds, herbicidal effect rating 0-9, three to four weeks after treatment.
The subject of data set [1] is Echinochloa oryzoides (Ard.) Fritsch. The data set can be described thus: Preemergence weed control under flooded paddy conditions, ECHORC (Watergrass (Calif.)). For herbicidal effect rating, ECHORC: meaning of each grade not given here. It is filed as in vivo. Particulars: flooded paddy; for herbicidal effect rating, ECHORC / ECHORC herbicidal rating: preemergence; for ECHORC: preemergence weeds, herbicidal effect rating 0-9, three to four weeks after treatment.

In data set [2] the test system is Cyperus serotinus, Rottb. Description: Preemergence weed control under flooded paddy conditions, CYPSE (Flatsedge). For herbicidal effect rating, CYPSE: meaning of each grade not given here. The conditions noted are these: for CYPSE: preemergence weeds, herbicidal effect rating 0-9, three to four weeks after treatment. It is filed as in vivo.
The test system of data set [3] is Oryza sativa, (L.) Tebonnet. Description: Rice tolerance to post-transplant applications under flooded paddy conditions (Example 187), ORYSAT (Rice, Tebonnet). For herbicidal effect rating ORYSAT: meaning of each grade not given here. Particulars: for herbicidal effect rating ORYSAT: rated 3-4 weeks after treatment; for ORYSAT: herbicidal effect rating 0-9, three to four weeks after treatment; for ORYSAT herbicidal rating (rice tolerance) / herbicidal effect rating, ORYSAT (rice tolerance): rated three to four weeks after treatment.

Data set [4] relates to Monochoria vaginalis, Presl. Description: Preemergence weed control under flooded paddy conditions, MOOVA (Monochoria). For herbicidal effect rating, MOOVA: meaning of each grade not given here. It is filed as in vivo. Particulars: flooded paddy; for herbicidal effect rating, MOOVA / MOOVA herbicidal rating: preemergence; for MOOVA: preemergence weeds, herbicidal effect rating 0-9, three to four weeks after treatment.
The mark [5] stands for this setting: Rate 0.0620 kg/ha, rated 3-4 weeks after treatment.
[6] abbreviates: Rate 0.1250 kg/ha, rated 3-4 weeks after treatment.
Where [7] appears, read: Rate 0.2500 kg/ha, rated 3-4 weeks after treatment.
Setting [8] is: Rate 0.5000 kg/ha, rated 3-4 weeks after treatment.
The mark [9] stands for this setting: 0.0320 kg/ha, rated three to four weeks after treatment.
Setting [10] is: 0.0620 kg/ha, rated three to four weeks after treatment.
[11] abbreviates: 0.1250 kg/ha, rated three to four weeks after treatment.
Setting [12] is: 0.2500 kg/ha, rated three to four weeks after treatment.
[13] abbreviates: 0.0313 kg/ha, rated three to four weeks after treatment.
Where [14] appears, read: 0.0625 kg/ha, rated three to four weeks after treatment.

With `CC(Oc1ccccc1-c1nsc2ccc(-n3c(=O)cc(C(F)(F)F)n(C)c3=O)cc12)C(=O)N(C)C` (centres unmarked) [Example 551, Propionamide, 2-{o-{5-[3,6-dihydro-3-methyl-2,6-dioxo-4-(trifluoromethyl)-1(2H)-pyrimidinyl]-1,2-benzisothiazol-3-yl}phenoxy}-N,N-dimethyl-], the “herbicidal effect rating, SAGPY” value came out at 0.0 with Sagittaria pygmaea, L. (setting [5]); 0.0 with Sagittaria pygmaea, L. (setting [6]); 0.0 in the data set with Sagittaria pygmaea, L. (setting [7]); 2.0 in the data set on Sagittaria pygmaea, L. (setting [8]). For the same compound, the “herbicidal effect rating, CYPIR” value in the data set with Cyperus iria (setting [5]) is on record as 0.0; in the data set on Cyperus iria (setting [6]), 0.0; with Cyperus iria (setting [7]), 2.0; in the data set on Cyperus iria (setting [8]), 9.0. For the same compound, the “herbicidal effect rating, ECHORC” value is recorded as 4.0 in data set [1] (setting [5]), 7.0 in data set [1] (setting [6]), 7.0 in data set [1] (setting [7]) and 9.0 in data set [1] (setting [8]). Moreover, the “herbicidal effect rating, CYPSE” value turned out to be 0.0 in data set [2] (Rate 0.0620 kg/ha, preemergence, rated 3-4 weeks after treatment); 0.0 in data set [2] (Rate 0.1250 kg/ha, preemergence, rated 3-4 weeks after treatment); 0.0 in data set [2] (Rate 0.2500 kg/ha, preemergence, rated 3-4 weeks after treatment); 0.0 in data set [2] (Rate 0.5000 kg/ha, preemergence, rated 3-4 weeks after treatment). For the same compound, the “herbicidal effect rating ORYSAT” value in data set [3] (Rate 0.0620 kg/ha) was 0.0; in data set [3] (Rate 0.1250 kg/ha), 3.0; in data set [3] (Rate 0.2500 kg/ha) it was 3.0; in data set [3] (Rate 0.5000 kg/ha) it was 4.0. Further, the “herbicidal effect rating, MOOVA” value in data set [4] (setting [5]) is 0.0; in data set [4] (setting [6]), 9.0; in data set [4] (setting [7]), 9.0; in data set [4] (setting [8]) it was 9.0.
Turning to `Cn1c(C(F)(F)F)cc(=O)n(-c2ccc3snc(/C=N/Nc4ccccc4)c3c2)c1=O` [Example 408, 1,2-Benzisothiazole-3-carboxaldehyde, 5-[3,6-dihydro-3-methyl-2,6-dioxo-4-(trifluoromethyl)-1(2H)-pyrimidinyl]-, 3-(phenylhydrazone), (E)-], the SAGPY in the data set on Sagittaria pygmaea, L. (0.0320 kg/ha) amounted to 0.0; with Sagittaria pygmaea, L. (0.0620 kg/ha), 0.0; in the data set with Sagittaria pygmaea, L. (0.1250 kg/ha), 4.0; with Sagittaria pygmaea, L. (0.2500 kg/ha), 6.0. The CYPIR in the data set with Cyperus iria (0.0320 kg/ha) was found to be 6.0; with Cyperus iria (0.0620 kg/ha), 9.0; with Cyperus iria (0.1250 kg/ha), 9.0; with Cyperus iria (0.2500 kg/ha), 9.0. The ECHORC in data set [1] (0.0320 kg/ha) was determined as 2.0; in data set [1] (0.0620 kg/ha), 3.0; in data set [1] (0.1250 kg/ha) it was 6.0; in data set [1] (0.2500 kg/ha), 7.0. Moreover, the CYPSE in data set [2] (0.0320 kg/ha) amounted to 0.0; in data set [2] (0.0620 kg/ha), 0.0; in data set [2] (0.1250 kg/ha), 5.0; in data set [2] (0.2500 kg/ha) it was 6.0. The ORYSAT in data set [3] (0.0320 kg/ha) came to 0.0; in data set [3] (0.0620 kg/ha), 2.0; in data set [3] (0.1250 kg/ha), 2.0; in data set [3] (0.2500 kg/ha), 3.0. Besides, the MOOVA in data set [4] (0.0320 kg/ha) came to 7.0; in data set [4] (0.0620 kg/ha) it was 9.0; in data set [4] (0.1250 kg/ha) it was 9.0; in data set [4] (0.2500 kg/ha), 9.0.
For the compound `COc1ccc(C)cc1-c1nsc2cc(F)c(-n3c(=O)cc(C(F)(F)F)n(C)c3=O)cc12` [Example 462, 2,4(1H,3H)-Pyrimidinedione, 3-[6-fluoro-3-(6-methoxy-m-tolyl)-1,2-benzisothiazol-5-yl]-1-methyl-6-(trifluoromethyl)-], the SAGPY herbicidal rating in the data set with Sagittaria pygmaea, L. (setting [9]) was 1.0; with Sagittaria pygmaea, L. (setting [10]), 4.0; in the data set with Sagittaria pygmaea, L. (setting [11]) it was 5.0; in the data set on Sagittaria pygmaea, L. (setting [12]), 6.0. The CYPIR herbicidal rating in the data set on Cyperus iria (setting [9]), in the data set with Cyperus iria (setting [10]), with Cyperus iria (setting [11]) and in the data set on Cyperus iria (setting [12]) was 9.0 in each case. Further, the ECHORC herbicidal rating in data set [1] (setting [9]), in data set [1] (setting [10]), in data set [1] (setting [11]) and in data set [1] (setting [12]) was 9.0 throughout. In data set [2] (0.0620 kg/ha, preemergence, rated three to four weeks after treatment), this compound registered a CYPSE herbicidal rating of 3.0. Also, the figures for the “ORYSAT herbicidal rating (rice tolerance)” value in data set [3] (0.0320 kg/ha), in data set [3] (0.0620 kg/ha) and in data set [3] (0.2500 kg/ha) were 5.0, 5.0 and 6.0, respectively. Moreover, the MOOVA herbicidal rating in data set [4] (setting [9]), in data set [4] (setting [10]), in data set [4] (setting [11]) and in data set [4] (setting [12]) was 9.0 each time.
As for `Cc1ccc(OC(C)C#N)c(-c2nsc3ccc(-n4c(=O)cc(C(F)(F)F)n(C)c4=O)cc23)c1` (centres unmarked) [Example 58, 3-{3-[6-(1-Cyanoethoxy)-m-tolyl]-1,2-benzisothiazol-5-yl}-1-methyl-6-(trifluoromethyl)-2,4(1H,3H)-pyrimidinedione], the “herbicidal effect rating, SAGPY” value with Sagittaria pygmaea, L. (setting [13]) stood at 0.0; in the data set with Sagittaria pygmaea, L. (setting [14]) it was 0.0; in the data set on Sagittaria pygmaea, L. (setting [11]), 0.0; in the data set on Sagittaria pygmaea, L. (setting [12]), 0.0. For the same compound, the “herbicidal effect rating, CYPIR” value with Cyperus iria (setting [13]), in the data set with Cyperus iria (setting [14]), with Cyperus iria (setting [11]) and in the data set with Cyperus iria (setting [12]) was 9.0 each time. Besides, the “herbicidal effect rating, ECHORC” value in data set [1] (setting [13]), in data set [1] (setting [14]), in data set [1] (setting [11]) and in data set [1] (setting [12]) was 9.0 in each case. Besides, the “herbicidal effect rating, CYPSE” value came out at 0.0 in data set [2] (0.0313 kg/ha, preemergence, rated three to four weeks after treatment); 0.0 in data set [2] (0.0625 kg/ha, preemergence, rated three to four weeks after treatment); 0.0 in data set [2] (0.1250 kg/ha, preemergence, rated three to four weeks after treatment); 0.0 in data set [2] (0.2500 kg/ha, preemergence, rated three to four weeks after treatment). Besides, the “herbicidal effect rating, ORYSAT (rice tolerance)” value was 2.0 in data set [3] (0.0313 kg/ha), 2.0 in data set [3] (0.0625 kg/ha), 3.0 in data set [3] (0.1250 kg/ha) and 5.0 in data set [3] (0.2500 kg/ha). For the same compound, the “herbicidal effect rating, MOOVA” value in data set [4] (setting [13]), in data set [4] (setting [14]), in data set [4] (setting [11]) and in data set [4] (setting [12]) was 9.0 each time.
